These results are taken from paper PMC6212638, “In silico identification and biochemical characterization of the human dicarboxylate clamp TPR protein interaction network” (FEBS Open Bio, 2018).

Peptide text beside a SMILES is read from it.

Series [1] concerns Tom20–Tom70 interaction. The series can be described thus: Mammalian two-hybrid assay (luciferase) of Tom20–Tom70 interaction in HEK293 cells. Format: cell-based, human. To be noted: peptide 20 μM added 4 h after transfection, 48 h, n = 3. From the text: (§1) Tom70 sequence was PCR amplified and subcloned into pACT vector of CheckMate™ mammalian two‐hybrid system (Promega, Madison, WI, USA) using SalI/NotI restriction sites, and Hsp90 and Tom20 DNA sequences were PCR amplified and subcloned into pBIND vector using SalI/NotI restriction sites. Tom70‐pACT/Hsp90‐pBIND and Tom70‐pACT/Tom20‐pBIND were co‐transfected with pLuc plasmid in a 1 : 1 : 1 molar ratio into HEK293 cells using Lipofectamine 3000 transfection reagent (Invitrogen, Carlsbad, CA, USA) according to the manufacturer's protocol. Triplicate samples in 96‐well cell culture plates Corning (Tewskbury, MA, USA) were used in each experiment. Hsp90, R9–Hsp90, Tom20 and R9–Tom20 peptides at concentration 20 μM were added 4 h after transfection. HEK293 cells were cultivated for 48 h, washed twice with PBS and lysed with PBS containing 1% Triton X‐100. Luciferase expression was detected using a luciferase assay kit from BioThema (Huddinge, Sweden) on a 96‐well plate reader from Perkin Elmer (Upplands Väsby, Stockholm, Sweden).
(§2) In subsequent experiments, non‐fluorescent peptides were used. […] Cell impermeable Hsp90 peptide served as a treatment control.

Series [2] relates to Tom20–Tom70 interaction. The series can be described thus: Proximity ligation assay (PLA) of Tom20–Tom70 interaction in HEK293 cells. Conditions: non-fluorescent peptide, n = 3. The series is classed as cell-based, human.
From the text: (§3) P < 0.05 was considered to be statistically significant. Data are presented as mean ± SEM.
as §2

The test system of series [3] is Hsp90–Tom70 interaction. The series can be described thus: Proximity ligation assay (PLA) of Hsp90–Tom70 interaction in HEK293 cells. Format: cell-based, human. Conditions: non-fluorescent peptide, n = 3.
From the text: as §3, §2

A further series concerns HEK293 cells. To be noted: N-terminally fluorescein-labeled peptides, 20 μM, fluorescence imaging.
From the text: as §3

For series [4], the system named is Hsp90–Tom70 interaction. The experiment in a line: Mammalian two-hybrid assay (luciferase) of Hsp90–Tom70 interaction in HEK293 cells. Conditions: peptide 20 μM added 4 h after transfection, 48 h, n = 3. The series is classed as cell-based, human.
From the text: as §1, §2

In series [5] the target is T1, FKBP51 (Homo sapiens, UniProt Q13451).
T1 sequence (Q13451 1-457): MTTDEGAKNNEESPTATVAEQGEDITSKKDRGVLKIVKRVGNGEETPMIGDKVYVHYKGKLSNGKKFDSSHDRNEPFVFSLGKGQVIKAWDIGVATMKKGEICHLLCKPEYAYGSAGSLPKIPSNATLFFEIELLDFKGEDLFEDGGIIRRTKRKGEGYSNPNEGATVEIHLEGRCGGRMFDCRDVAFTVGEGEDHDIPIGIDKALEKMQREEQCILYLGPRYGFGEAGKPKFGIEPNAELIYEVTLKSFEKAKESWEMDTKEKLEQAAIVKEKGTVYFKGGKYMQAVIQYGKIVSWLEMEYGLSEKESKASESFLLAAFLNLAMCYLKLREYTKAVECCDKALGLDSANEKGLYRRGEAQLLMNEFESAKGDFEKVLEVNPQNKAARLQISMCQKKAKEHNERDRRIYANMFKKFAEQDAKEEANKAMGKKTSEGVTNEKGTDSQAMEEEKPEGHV
The experiment in a line: Dot-blot competition assay: HRP-conjugated peptide vs unlabeled peptide on immobilized FKBP51.
Protocol: Full‐length cDNA clones for respective proteins were obtained from IMAGE consortium (SourceBioScience, Nottingham, UK) and PCR amplified with forward and reverse primers (Table 1) containing overhangs with appropriate restriction sites and cloned into pGEX6 vectors (GE Healthcare, Uppsala, Sweden). Inserts were sequence verified, and the plasmids were transformed into BL21 Escherichia coli strain. Glutathione‐S‐transferase (GST) fusion proteins were purified from 1 L overnight culture after 2 h of induction with 1 mM IPTG. Cells were pelleted, resuspended in 1× PBS and sonicated 3 × 20 s on ice. EDTA and protease inhibitor cocktail were added to prevent proteolysis. The suspension was centrifuged for 30 min at 50 000 g to remove cell debris, and supernatant was loaded onto a 1 mL GSTrap™ 4B column (GE Healthcare). After column washing with 30 mL PBS, GST fusion proteins were eluted with 2.5 mL 10 mM glutathione in PBS. Eluate was passed through a PD‐10 column (GE Healthcare) to remove free glutathione. To prepare GST‐tag‐free proteins, we performed overnight cleavage at 4 °C with PreScission protease (GE Healthcare) followed by passage through a GSTrap column to remove free GST protein. Average yield from 1 L starting culture was 1–5 mg of purified proteins. Protein‐containing fractions were collected, checked with SDS/PAGE and kept at −20 °C.
Peptides were dissolved in HEPES‐KOH buffer pH 7.2 at concentration of 1 mg·mL^−1 and incubated with equimolar amounts of activated horseradish peroxidase (HRP) (Lightning‐link® HRP labeling kit cat. 701‐004, from Innova Biosciences) for 5 min. Reaction was quenched with 0.1 M Tris/HCl, pH 7.5 for 10 min and the products were passed through PD‐10 columns (GE Healthcare). Dot‐blot experiments were performed using GST‐tag‐free proteins applied to the nitrocellulose membrane. After blocking of membrane with 3% BSA in TBS‐T buffer for 1 h and subsequent wash with TBS‐T, HRP‐conjugated peptides (1 × 500 times dilution) were applied and incubated for 1 h. After subsequent washing (3 × 10 min, TBS‐T), membrane was dried and signals were quantified using a digital Fujifilm LAS3000 imager and LAS3000 software. In competition experiments, increasing concentrations of unlabeled peptides were co‐incubated with peptide–HRP conjugates.
Each peptide was separately coupled to HRP.

Series [6] relates to FKBP51. Conditions: cited from earlier work. The source says:
Here in this study, we systematically searched the human protein database (https://www.ncbi.nlm.nih.gov/protein/) for the protein products containing Hsp70/Hsp90‐like sequence signatures at their C terminus. Sev ...

Series [7] concerns Tom70. Conditions: cited from earlier work.
From the text: First, we tested the ability of unlabeled Hsp90 and Tom20 peptides to compete with their HRP‐labeled analogues for binding to Tom70, the known partner for both Hsp90 and Tom20 proteins.
The next series has as its target T2, AIP (Homo sapiens, UniProt O00170).
T2 sequence (O00170 1-330): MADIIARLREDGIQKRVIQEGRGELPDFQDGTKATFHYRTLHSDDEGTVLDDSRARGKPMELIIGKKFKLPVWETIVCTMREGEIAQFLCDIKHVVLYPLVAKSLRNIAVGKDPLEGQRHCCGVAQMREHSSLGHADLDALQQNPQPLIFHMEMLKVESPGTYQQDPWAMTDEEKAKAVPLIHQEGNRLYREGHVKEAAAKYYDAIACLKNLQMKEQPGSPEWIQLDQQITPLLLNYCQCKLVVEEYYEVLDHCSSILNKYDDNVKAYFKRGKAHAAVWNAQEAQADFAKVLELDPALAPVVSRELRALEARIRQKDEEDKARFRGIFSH
The experiment in a line: Dot-blot competition assay: HRP-conjugated peptide vs unlabeled peptide on nitrocellulose-immobilized AIP.

Series [8] concerns Tom70. The experiment in a line: Dot-blot assay of Tom70 with HRP-conjugated Hsp90 and Tom20 peptides in presence of unconjugated peptides. Format: binding, human. Conditions: 20 μM unconjugated peptide. How it is done: as §2
Figure 6 In vitro and in situ analysis of interactions of 10‐amino‐acid peptides corresponding to C termini of Hsp90 and Tom20 with Tom70. (A) Dot‐blot assay of interactions between Tom70 and HRP‐conjugated 10‐amino‐acid peptides corresponding to C termini of Hsp90 and Tom20 in the presence of 20 μM of unconjugated peptides. (B) Fluorescence imaging of HEK293 cells in the presence of 20 μM of fluorescein‐labeled Hsp90, R9–Hsp90, Tom20 and R9–Tom20 peptides. (C) Inhibition of Tom20–Tom70 and Hsp90–Tom70 interactions with R9–Hsp90 and R9–Tom20 in HEK293 cells measured by PLA. n = 3. Graphs were created and SD values were calculated using PRISM, version 7.02. *P‐value < 0.05 compared to control; comparisons are based on one‐way ANOVA. (D) Inhibition of Tom20–Tom70 and Hsp90–Tom70 interactions with R9–Hsp90 and R9–Tom20 in HEK293 cells measured by mammalian two‐hybrid assay. n = 3. Graphs were created and SD values were calculated using PRISM, version 7.02. *P‐value < 0.05 compared to control; comparisons are based on one‐way ANOVA.

The next series addresses T3, GST–AIP (human, UniProt O00170 1-330).
T3 construct: bait of the GST pull-down; source: E. coli BL21, purified (GSTrap 4B, PD-10)
T3 sequence (looked up): T2 sequence (O00170 1-330)
The series can be described thus: pull-down; GST–AIP and GST–FKBP51 as bait, purified full-length and truncated proteins as prey; bound proteins probed by western blot with their antibodies. To be noted: both partners purified. For orientation: Immunoblotting shows a protein as a band on a membrane.

In the next series the target is T4, GST–FKBP51 (human, UniProt Q13451 1-457).
T4 construct: bait of the GST pull-down; source: E. coli BL21, purified (GSTrap 4B, PD-10)
T4 sequence (looked up): T1 sequence (Q13451 1-457)
Described as above. To be noted: both partners purified.

For “H-RRRRRRRRREDASRMEEVD-OH [R9–Hsp90, cell‐permeant analog of the Hsp90 peptide containing a nine‐arginine N‐terminal tag]”, the “inhibition of Tom20–Tom70 interaction (mammalian two-hybrid, luciferase)” value with Tom20–Tom70 interaction [1] is recorded as “sensitive”. Moreover, the “decrease of Tom20–Tom70 interaction signal (PLA)” value in the series with Tom20–Tom70 interaction [2] was “approximately 50%”. The “decrease of Hsp90–Tom70 interaction signal (PLA)” value in the series on Hsp90–Tom70 interaction [3] was “approximately 50%”. For the same molecule, in the series with HEK293 cells, the “fluorescein staining of HEK293 cells (peptide translocation into the cells)” value was “resulted in HEK293 cells staining”. In addition, the “inhibition of Hsp90–Tom70 interaction (mammalian two-hybrid, luciferase)” value in the series with Hsp90–Tom70 interaction [4] is listed as “inhibited”.
On to “H-DDDDDDDDDD-OH [poly‐D, reference compound]”, for which, on FKBP51 [5] (HRP-conjugated peptide on immobilized dcTPR proteins), the “signal of HRP-conjugated peptide in dot-blot binding assay” value is “did not produce any signal”. Also, the “interaction with FKBP51” value in the series with FKBP51 [6] is “no interaction was observed”.
Consider `CSCC[C@H](NC(=O)[C@H](CCCNC(=N)N)NC(=O)[C@H](CO)NC(=O)[C@H](C)NC(=O)[C@H](CC(=O)O)NC(=O)[C@@H](N)CCC(=O)O)C(=O)N[C@@H](CCC(=O)O)C(=O)N[C@@H](CCC(=O)O)C(=O)N[C@H](C(=O)N[C@@H](CC(=O)O)C(=O)O)C(C)C` [Hsp90β], for which the IC50 at FKBP51 [5] was found to be 18.9 ± 3 µM; at AIP, 17.8 ± 1.35 µM. Further, the “affinity for Tom70 relative to 10-mer Tom20 peptide” value in the series with Tom70 [7] is “more than 10 fold”. In the series with Tom70 [8], the “competition with HRP-conjugated Hsp90 peptide for Tom70 binding” value is “effectively competes”. For the same molecule, in the series with Tom70 [8], the “competition with HRP-conjugated Tom20 peptide for Tom70 binding” value is reported as “effectively competes”.
Take `CC(C)C[C@H](NC(=O)[C@H](CO)NC(=O)[C@H](CCC(N)=O)NC(=O)[C@H](C)NC(=O)[C@H](CCCNC(=N)N)NC(=O)[C@H](CCCNC(=N)N)NC(=O)[C@H](CCCNC(=N)N)NC(=O)[C@H](CCCNC(=N)N)NC(=O)[C@H](CCCNC(=N)N)NC(=O)[C@H](CCCNC(=N)N)NC(=O)[C@H](CCCNC(=N)N)NC(=O)[C@H](CCCNC(=N)N)NC(=O)[C@@H](N)CCCNC(=N)N)C(=O)N[C@@H](C)C(=O)N[C@@H](CCC(=O)O)C(=O)N[C@@H](CC(=O)O)C(=O)N[C@@H](CC(=O)O)C(=O)N[C@H](C(=O)N[C@@H](CCC(=O)O)C(=O)O)C(C)C` [R9–Tom20] (H-RRRRRRRRRAQSLAEDDVE-OH): in the series on Tom20–Tom70 interaction [1], the “inhibition of Tom20–Tom70 interaction (mammalian two-hybrid, luciferase)” value is on record as “sensitive”. Besides, in the series with Hsp90–Tom70 interaction [3], the “decrease of Hsp90–Tom70 interaction signal (PLA)” value is listed as “failed to inhibit”. The “fluorescein staining of HEK293 cells (peptide translocation into the cells)” value in the series with HEK293 cells is “resulted in HEK293 cells staining”. In the series on Hsp90–Tom70 interaction [4], the “inhibition of Hsp90–Tom70 interaction (mammalian two-hybrid, luciferase)” value was “inhibited only by addition of R9–Hsp90 peptide”.

B1: Bcl-G (natural protein, human, UniProt Q9BZR8 1-327, looked up)
chain: MCSTSGCDLEEIPLDDDDLNTIEFKILAYYTRHHVFKSTPALFSPKLLRTRSLSQRGLGNCSANESWTEVSWPCRNSQSSEKAINLGKKKSSWKAFFGVVEKEDSQSTPAKVSAQGQRTLEYQDSHSQQWSRCLSNVEQCLEHEAVDPKVISIANRVAEIVYSWPPPQATQAGGFKSKEIFVTEGLSFQLQGHVPVASSSKKDEEEQILAKIVELLKYSGDQLERKLKKDKALMGHFQDGLSYSVFKTITDQVLMGVDPRGESEVKAQGFKAALVIDVTAKLTAIDNHPMNRVLGFGTKYLKENFSPWIQQHGGWEKILGISHEEVD
notes: Bcl-2-like protein 14 (Bcl-G), human, full-length cDNA clone; also called Bcl-2-like protein 14; source: E. coli BL21, purified as GST fusion (GSTrap), GST removed with PreScission protease
Turning to B1, the binding result with GST–AIP and with GST–FKBP51 was “binds” in each case.

One may read the IC50 as the point on the concentration scale where inhibition reaches its midpoint. A low value points to greater potency.
